pEC50: −log10 of the molar value.

Here are results for 4 compounds from patent US20140206657A1, “BILE ACID ANALOG TGR5 AGONISTS” (City of Hope, priority 2013, published 2014).

The target of one series is T1, human TGR5 (Homo sapiens, UniProt Q8TDU6).
T1 construct: expressed in transfected cells
T1 sequence (Q8TDU6 1-330): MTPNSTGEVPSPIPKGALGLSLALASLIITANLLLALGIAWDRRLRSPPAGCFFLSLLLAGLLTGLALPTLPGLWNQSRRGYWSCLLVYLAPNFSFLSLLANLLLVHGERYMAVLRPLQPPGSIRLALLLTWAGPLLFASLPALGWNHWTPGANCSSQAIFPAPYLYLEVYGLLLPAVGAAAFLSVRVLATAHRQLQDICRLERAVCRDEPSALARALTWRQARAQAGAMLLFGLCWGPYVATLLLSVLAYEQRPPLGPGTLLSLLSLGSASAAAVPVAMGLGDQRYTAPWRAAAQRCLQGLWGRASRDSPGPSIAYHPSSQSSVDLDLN
In words: cAMP assay, HEK293 cells stably expressing human TGR5. Type of series: cell-based. The method, then:
The changes in cAMP elicited by these bile acid derivatives was determined after binding to the TGR5. […] HEK293 cells stably expressing human TGR5 were treated with increasing doses of ligand after 6 hours of stimulation, and intracellular cAMP levels were measured by luminescence. […] Data analysis to determine EC50 values was performed with GraphPad Prism software using a cAMP standard curve and sigmoidal dose-response (variable slope) equation based on dose-response curves with tested compounds.
In general terms: cAMP levels reflect the balance of adenylyl cyclase and phosphodiesterase activity.

Regarding `CC[C@@]1(O)CC[C@@]2(C)[C@H](CC[C@@H]3[C@@H]2CC[C@]2(C)[C@@H]([C@H](C)CCC(=O)O)CC[C@@H]32)C1` [compound 26, 3β-Ethyl-3α-hydroxy-LCA], the “TGR5 activity / potency, in words (SAR statements)” value on human TGR5 (assay not named in b266 and b269, b275 belongs to the cAMP example) is given as “large loss in potency”.

The term melting point denotes the temperature of the solid-liquid transition. In turn, `CC[C@H]1C[C@@H]2[C@H](CC[C@]3(C)[C@@H]([C@H](C)C[C@H](C)C(=O)O)CC[C@@H]23)[C@@]2(C)CC[C@@H](O)C[C@@H]12` had a melting point of 137.7 °C.

In general, pEC50 refers to the EC50 on a negative log10 scale, so that one unit is a factor of ten. Lower therefore signals a high EC50. Compound `CC[C@H]1[C@H](O)[C@@H]2[C@H](CC[C@]3(C)[C@@H]([C@H](C)C[C@H](C)C(=O)O)CC[C@@H]23)[C@@]2(C)CC[C@@H](O)C[C@@H]12` [compound 24, 3α,7β-Dihydroxy-23(S)-methyl-6α-ethyl-5β-cholan-24-oic acid] had a pEC50 at human TGR5 of 6.15.

Compound `C[C@H](C[C@H](C)C(=O)O)[C@H]1CC[C@H]2[C@@H]3CC[C@@H]4C[C@H](O)CC[C@]4(C)[C@H]3CC[C@]12C` [compound 13, 23(S)-Methyl-3α-hydroxy-5β-cholan-24-oic acid] showed a pEC50 at human TGR5 of 6.68.
